We go through 11 molecules from US7662977B2, “PI-3 kinase inhibitor prodrugs” (Semafore Pharmaceuticals, Inc., priority 2003, dated 2010).

Peptide text beside a SMILES is read from it. * marks the point of attachment. X1 = O=C(CCC(=O)*)OC[N+]1(c2cc(=O)c3cccc(-c4ccccc4)c3o2)CCOCC1

For one data set, the system named is nude mice. In words: Acute toxicity after intravenous injection in nude mice. It is filed as in vivo. How it is done: (§1) In order to prepare the acetoxymethyl quarternary salt of Compound 1101, 1.0 g Compound 1101 was dissolved in 10 ml dry acetonitrile in a glass vial, and 1.0 g bromomethyl acetate (2.0 equivalents) was added and allowed to stir at room temperature overnight. LCMS indicated presence of starting material, so the reaction was heated at 65° C. in an oil bath for 8 hours. The mother liquors were decanted from the solid and the solids washed with a small amount of cold acetonitrile. The solid was dried in a vacuum dessicator overnight. The product was identified as 264 mg of a white solid with a retention time of 2.204 minutes, M+=380 which was 97% pure. […] Additionally, 250 uL of this 32.5 mM solution of compound A040-70 was administered to a nude mouse by oral gavage.
Intravenously administered Compound 1 was determined to have a 100% mortality within 5 minutes of administration in three nude mice at a dose level of 16 mg/kg.

In data set [1] the test system is EDC-CBF1 endothelial cells. Nature of the data set: Tube formation of EDC-CBF1 endothelial cells on Matrigel. It is filed as cell-based. The conditions noted are these: overnight.
Method: In this example it was determined to what degree PI 3 kinase inhibitors (including targeted PI3 kinase inhibitor prodrugs) could inhibit tube formation. Matrigel was plated into 12-well plate wells and solidified in 37° C. for 2 hours. 1×10^5 EDC-CBF1 endothelial cells were then put on the top of the Matrigel layer in the presence of PBS, RADfV (cyclic negative control peptide), RGDfV (cyclic positive control peptide), RADS (linear negative control peptide), compound 1, or Compound 1126 at 20° M concentration overnight. Pictures were then taken using a microscope.
The test system of data set [2] is J774 macrophages. Nature of the data set: Phagocytosis of sensitized sRBCs in J774 macrophages (class I PI-3 kinase-dependent pathway). It is filed as cell-based. The note with it: for phagocytic index (PGI): 5 μM. The protocol:
The columns indicate phagocytic index or percentage of cells positive for phagocytic response. The phagocytic index is the number of sRBC's (sheep red blood cells) found per 100 J774 cells and the % of phagocytic cells is the % of J774 cells that have phagocytized at least 1 sRBC. The error bars represent standard deviation of mean.
The bioactivity of LY294002 (Compound 1) was determined by assaying phagocytosis in J774 macrophages, which is a class I PI-3 kinase-dependent pathway. Briefly, […] DMSO control for 1 h in DMEM with 10% FCS and then sensitized sRBCs (sheep red blood cells) was added at a target to effector ratio equal to 100:[…] Cells were exposed to hypotonic shock to remove red blood cells and phagocytosis was determined by measurement of hemoglobin concentration in the cell lysates. […]

Data set [3] has as its system J774 macrophages. Described as above. The class given is cell-based.
The test system of data set [4] is p53 transcriptional activity. In words: p53 luciferase (transcriptional activity) in HBECs. It is filed as cell-based. The conditions noted are these: for induction of p53 luciferase activity versus control: HBECs, Compound 1: 6 hour exposure. An excerpt:
This experiment tested the effect of PI 3 kinase inhibitors (Compound 1 and the targeted prodrug version of Compound 1; Compound 1126) on the induction of p53 luciferase activity. The transfection procedure was similar to that described in the literature to monitor p53 transcription.

Data set [5] can be described thus: Reversibility of prodrugs to compound 1 in aqueous phosphate buffer (LC-MS over time). The conditions noted are these: for half-life: phosphate buffer.
Method: Prodrug Compounds were dissolved in water or in DMSO (if not freely soluble in water) and then diluted at least 10-fold into 50 mM phosphate buffer at pH=7.4 or pH=4.8 and allowed to stand at room temperature. The final concentration of the compounds in aqueous environment ranged from 50 to 500 uMolar.
Data set [6] deals with human non-small cell lung cancer cells: H1299. In words: H1299 non-small cell lung cancer xenograft in nude mice. It is filed as in vivo. How it is done:
Male nude mice of 4-6 weeks in age weighing around 30 grams were inoculated subcutaneously in the right flank with 5 million tumor cells (human non-small cell lung cancer cells: H1299) on day 0. After 14 days of allowing the tumors to grow the animals were divided into 3 groups of 5 animals each. One group received vehicle control alone. One group received twice-per-day tail vein injections (i.v) of 50 uL volume of 24.4 millimolar solution of Compound 1126 in phosphate buffered saline corresponding to 25 mg/kg/day dosing level of the active component of the prodrug (i.e. compound 1). The last group received twice-per-day tail vein injections (i.v) of 50 uL volume of 4.9 millimolar solution of Compound 1126 in phosphate buffered saline corresponding to 5 mg/kg/day dosing level of the active component of the prodrug (compound 1). The tumors were measured every three days using calipers to determine the tumor volume and the animals weights were recorded when the animals were sacrificed on day 27. The results are shown in Table 7 and indicate strong tumor volume reduction versus control for both dose levels at the first datapoint only 3 days after treatment (Day 17) and continuing through to the end of the study: […]

The test system of data set [7] is human brain cancer cell line (U87MG). In words: U87MG brain cancer xenograft model. It is filed as in vivo. The note with it: 25 mg/kg/day; for % Tumor Volume Reduction compared to vehicle only control: treatment from day 7, U87MG xenograft. The protocol:
Male nude mice of 4-6 weeks in age weighing around 30 grams were inoculated subcutaneously in the right flank with 5 million tumor cells (human non-small cell lung cancer cells: H1299) on day 0. After 14 days of allowing the tumors to grow the animals were divided into 3 groups of 5 animals each. One group received vehicle control alone. One group received twice-per-day tail vein injections (i.v) of 50 uL volume of 24.4 millimolar solution of Compound 1126 in phosphate buffered saline corresponding to 25 mg/kg/day dosing level of the active component of the prodrug (i.e. compound 1). The last group received twice-per-day tail vein injections (i.v) of 50 uL volume of 4.9 millimolar solution of Compound 1126 in phosphate buffered saline corresponding to 5 mg/kg/day dosing level of the active component of the prodrug (compound 1). The tumors were measured every three days using calipers to determine the tumor volume and the animals weights were recorded when the animals were sacrificed on day 27. The results are shown in Table 7 and indicate strong tumor volume reduction versus control for both dose levels at the first datapoint only 3 days after treatment (Day 17) and continuing through to the end of the study:
An animal study was run as described in Example above except using a human brain cancer cell line (U87MG) and with treatment starting on day 7 such that the first tumor volume measurement occurred on day 10.

Data set [8] can be described thus: Water solubility / solution in phosphate buffered saline. It is filed as physicochemical. The protocol: as §1
For data set [9] the following is noted: portion not accumulated in the skeleton; cited from earlier work.
The mark [10] stands for this setting: 20 uM, exposure-limited: 20 minute exposure then removal of test solution, solvent blank 163.

Take “2-(4-morpholinyl)-8-phenyl-4H-1-benzopyran-4-one [Compound 1]”: the “observed effects after injection” value in the data set on nude mice (mice, injection of 1.04 uMoles) was “immediate death in three out of three mice”.
Usually mortality stands for the share of the test organisms that died. Regarding `O=c1cc(N2CCOCC2)oc2c(-c3ccccc3)cccc12` [Compound 1, 2-(4-morpholinyl)-8-phenyl-4H-1-benzopyran-4-one], the “tube formation compared with PBS control” value in data set [1] is on record as “significantly less”. In addition, the blocking of phagocytosis entry in the data set with J774 macrophages [2] (LY294002 at 10, 1 and 0.1 μM for 1 h, J774 cells) is given as “significantly blocked phagocytosis at all concentrations in a dose dependent manner”. In addition, in the data set with J774 macrophages [3] (setting [10]), the “phagocytic index (PGI)” value was 190. In addition, the mortality in the data set with nude mice (nude, mouse, in vivo, iv, 16 mg/kg, 5 min) worked out at 100%. For the same molecule, the “induction of p53 luciferase activity versus control” value in data set [4] is “more than two fold higher”.
Usually half-life stands for the time needed for the level to fall by half in the phase considered. Take `CC(C)(C)OC(=O)CCC(=O)OC[N+]1(c2cc(=O)c3cccc(-c4ccccc4)c3o2)CCOCC1` [Compound 1110]: the results for the half-life in data set [5] (pH 4.8) and in data set [5] (pH 7.4) were greater than 120 h and roughly 10 h, respectively.
Regarding `N=C(N)NCCCC(NC(=O)CCC(=O)OC[N+]1(c2cc(=O)c3cccc(-c4ccccc4)c3o2)CCOCC1)C(=O)NCC(=O)NC(CC(=O)O)C(=O)NC(CO)C(=O)O` (centres unmarked) [Compound 1126] (X1-RGDS-OH; configuration not given here), the “tube formation compared with PBS control” value in data set [1] is given as “significantly less”. Also, the “% Tumor Volume Reduction compared to vehicle only control” value is recorded as 29% in data set [6] (5 mg/kg/day i.v. twice per day from day 14, H1299, Day 17); 50% in [6] (5 mg/kg/day i.v. twice per day from day 14, H1299, Day 20); 44% in data set [6] (5 mg/kg/day i.v. twice per day from day 14, H1299, Day 24); 35% in data set [6] (5 mg/kg/day i.v. twice per day from day 14, H1299, Day 27); 35% in data set [6] (25 mg/kg/day i.v. twice per day from day 14, H1299, Day 17); 66% in data set [6] (25 mg/kg/day i.v. twice per day from day 14, H1299, Day 20). Besides, the “% Tumor Volume Reduction compared to vehicle only control” value in [6] (25 mg/kg/day i.v. twice per day from day 14, H1299, Day 24) was 68%; in data set [6] (25 mg/kg/day i.v. twice per day from day 14, H1299, Day 27), 68%; in [7] (Day 10) it was 20.2%; in data set [7] (Day 14) it was 52.6%; in data set [7] (Day 17), 38.5%; in data set [7] (Day 21), 35.2%. For the same molecule, in data set [6] (day 27, 25 and 5 mg/kg/day i.v., nude mice), the “animal body weights, control group versus the two treatment groups” value is listed as “lack of statistically significant difference”. In addition, in data set [6] (two week administration period, 25 and 5 mg/kg/day i.v., nude mice), the “tolerability of twice per day doses” value is “well tolerated”. Further, in data set [7], the “toxicity in U87MG xenograft study” value was “desirable lack of toxicity”. In addition, the “phagocytic index (PGI)” value in the data set with J774 macrophages [2] (aqueous pH=7 incubation time 2 hours) is on record as 88; in the data set on J774 macrophages [2] (aqueous pH=7 incubation time 5 hours), 78; in the data set with J774 macrophages [2] (aqueous pH=7 incubation time 10 hours), 37; in the data set with J774 macrophages [2] (time zero with no preincubation) it was 140; in the data set on J774 macrophages [3] (1 uM, 20 minute incubation, removal, then 2 hours for phagocytosis, 0 uM gave 213), 206; in the data set with J774 macrophages [3] (3 uM, 20 minute incubation, removal, then 2 hours for phagocytosis, 0 uM gave 213) it was 143. Further, the “phagocytic index (PGI)” value in the data set on J774 macrophages [3] (10 uM, 20 minute incubation, removal, then 2 hours for phagocytosis, 0 uM gave 213) stood at 33; in the data set on J774 macrophages [3] (setting [10]), 50. Further, the mortality with nude mice (intravenous, 22 mg/kg, three nude mice, after 1 hour of observation) was 0%. Further, the “induction of p53 luciferase activity versus control” value in data set [4] is roughly 3 fold.
`CN1CC(=O)N(c2ccc(C(=O)OC[N+]3(c4cc(=O)c5cccc(-c6ccccc6)c5o4)CCOCC3)cc2)C1=S` [Compound A017-59]: in data set [5] (phosphate buffer at pH=7.4, over a 17 hour period), the “conversion back to compound 1” value is on record as “significant amounts of this compound converted back to compound 1”.
For the molecule `COCCOCCOCCOCCC(=O)OC[N+]1(c2cc(=O)c3cccc(-c4ccccc4)c3o2)CCOCC1` [Compound A027-85], the half-life in data set [5] (pH 7.4) was roughly 3 h.
Regarding `CC(=O)OC[N+]1(c2cc(=O)c3cccc(-c4ccccc4)c3o2)CCOCC1` [Compound A040-70], in data set [5] (pH 7.4), the half-life is roughly 10 h. In addition, the water solubility result in data set [8] is on record as “very high water solubility”. Also, in [8] (27 mg in 1.865 mL PBS, resulting pH around 4), the “concentration of solution prepared in phosphate buffered saline” value is given as 32.5 millimolar.
As for `O=C(CCC(=O)OC[N+]1(c2cc(=O)c3cccc(-c4ccccc4)c3o2)CCOCC1)NCc1ccc(C(=O)NCCN(CCN(CP(=O)(O)O)CP(=O)(O)O)CCN(CP(=O)(O)O)CP(=O)(O)O)cc1` [Compound A046-89P], in [5] (after 24 hours standing at pH=7.0, phosphate buffer), the “conversion back to compound 1” value was “converted completely back to compound 1”.
For the molecule `O=P([O-])(O)CN(CCN(CP(=O)([O-])O)CP(=O)(O)O)CP(=O)([O-])O.[153Sm+3]` [^153Sm-EDTMP], in data set [9], the “time after administration at which excretion is almost complete” value is no more than 6 h.
Take `Cc1ccc(C(=O)Cn2c3c(sc2=N)CCCC3)cc1` [pifithrin alpha]: the “effect on induction of p53 function by Compound 1 and Compound 1126” value in data set [4] (20 uM concentration) is “abrogated”.
“arg-gly-asp-ser [RGDS, reference compound]”: in data set [1], the “tube formation compared with PBS control” value is listed as “not much difference”. The “phagocytic index (PGI)” value with J774 macrophages [3] (setting [10]) was 170.
